Experimental data taken from ChEMBL document CHEMBL1153659, “Target directed enediyne prodrugs: hER and AhR degradation by a synthetic oxo-enediyne” (1996).

Tested on: T47D
Experiment: Compound was tested for growth inhibition against T-47D-Y cells at 10e-4 M
Format: functional
Conditions: Homo sapiens

## C1#CCO[C@H]2CCCC[C@@H]2C#C/C=C\1
  inhibition at 100 µM: 83%
